2 molecules from patent publication US20030180924A1, “Formulation of certain pyrazolo [3,4,-d] pyrimidines as kinase modulators” (priority 2002, published 2003) can be followed below.

The structures appear in SMILES notation. Where two headings read alike, the source gives them in different places.

Series [1] can be described thus: Bioavailability testing, IV treatment (whole blood, LC/MS). The series is classed as in vivo. Conditions: male CD-1 mice; for AUC: whole blood; for clearance / Vd: mouse, in vivo; for Vd: read-out: Vdss. As for the experimental part:
(§1) Compositions comprising the free base of 1-Na-PP1 and 1-NM-PP1 (Control) and the hydrochloride salt of 1-Na-PP1 and 1-NM-PP1 formulated with Vitamin E TPGS are administered to male CD-1 mice intraperitoneally (IP) and intravenously (IV). Whole blood samples were collected from three animals per time point and prior via cardiac puncture into EDTA tubes and placed on wet ice. Samples were analyzed after drying and predissolution in 0.1:20:80 formic acid:methanol:water by liquid chromatography/mass spectrometry using an Xterra C182.5 micromenter particle size analytical column (15 mm×2.1 mm).

Series [2] in a line: Bioavailability testing, IP treatment (whole blood, LC/MS). The series is classed as in vivo. As to conditions: 0.793 mg/Kg, male CD-1 mice; for AUC / Cmax: whole blood; for Tmax / bioavailability / half-life / Cmax: mouse, in vivo; for half-life: read-out: T½ (converted). As for the experimental part:
as §1

Take `CC(C)(C)n1nc(Cc2cccc3ccccc23)c2c(N)ncnc21` [1-NM-PP1 (Control)]: in series [1] (0.793 mg/Kg), the AUC/Dose was 0.13 ng·h/mL/µg/kg; the T½ turned out to be 23.4 min; the AUC – broadly, concentration integrated over time – was 37.08 ng·h/mL; the clearance (as a rule, the rate of elimination divided by the concentration) stood at 130 mL/min/kg. In addition, in series [1] (0.793 mg/Kg), the Vd was determined as 4.1 L/kg. Besides, in series [2], the AUC/Dose stood at 0.16 ng·h/mL/µg/kg; the exposure (AUC) worked out at 134.84 ng·h/mL; the time to peak (Tmax) (in general, the time at which the peak concentration occurs) was found to be 4.98 min; the bioavailability (as a rule, dose-corrected exposure relative to a reference, in per cent) was found to be 100%. Besides, in series [2], the half-life was 85.2 min and the concentration peaked (Cmax) at 90.6 ng/mL.
For `CC(C)(C)n1nc(-c2cccc3ccccc23)c2c(N)ncnc21` [1-Na-PP1 (Control), 1-tert-butyl-3-naphthalen-1-yl-1H-pyrazolo[3,4-d]pyrimidin-4-ylamine], in series [1] (0.269 mg/Kg), the AUC/Dose turned out to be 0.12 ng·h/mL/µg/kg, the T½ turned out to be 27.6 min, the AUC came to 32.14 ng·h/mL and the clearance amounted to 133 mL/min/kg. The Vd in series [1] (0.269 mg/Kg) stood at 5.3 L/kg. In series [2], the AUC/Dose worked out at 0.13 ng·h/mL/µg/kg, the AUC is 99.37 ng·h/mL, the Tmax was found to be 4.98 min and the bioavailability stood at 100%. Moreover, in series [2], the half-life is 90.6 min and the highest concentration (Cmax) (commonly the maximum level reached in the sampled fluid or tissue) came to 55 ng/mL.
